Measurements as given in patent US7309484B2, “Compositions and methods for screening antibacterial compounds” (priority 2003, dated 2007).
Where two headings read alike, the source gives them in different places. Bridge positions count the residues as written; N and C are the ends. Square brackets hold non-standard residues; d marks the D form. Peptide text beside a SMILES is read from it. * marks the point of attachment. Ileψ(thiazoline)Cys = CC[C@H](C)[C@H](N)C1=N[C@H](C(=O)*)CS1; dOrn = NCCC[C@@H](N)C(=O)O

Tested on: B. subtilis liaH mutant HB0920 gene expression
Assay: microbe, parasite or virus in culture
Assay type: cell-based, Bacillus subtilis
Conditions: for fold induction at 100 µg/mL: Bacillus subtilis; for Fold induction 15 min / Fold induction 5 min: 100 μg/mL, listed as zinc-bacitracin
Description: The bacitracin stimulon of B. subtilis was examined using global transcriptome analysis. […] Under most conditions tested, about 60-70 genes were induced greater than 5-fold. […] The scatter-plot represents the data sets obtained for strain HB0920 (yvqH was still detected as bacitracin-inducible due to the presence of a remaining region near the 5′-end of the gene). […] Members of the σ^M (white open squares) and σ^B (small black triangles) regulon are highlighted. All other gene signals are represented as small gray diamonds. Note that for the generation of this graphical display the data sets could not be filtered to remove low quality and non-reproducible signals, thus some of the background signals (small gray diamonds) that appear to represent highly regulated genes are not significant.
The liaH-deletion mutant was included in the analysis because the well-characterized LiaH-homologue in E. coli, PspA, functions as a repressor of transcription (Adams et al., 2003, J Bacteriol. 185: 1174-1180; Bordes et al., 2003, Proc Natl Acad Sci USA. 100: 2278-2283, the entire teachings of which are incorporated herein by reference). […] Similar results were obtained with CU1065.
For microarray analysis 100 mL of LB medium were inoculated from a fresh overnight LB-plate and incubated at 37° C. with aeration until the culture reached an O.D.600≈0.45, when the culture was split: 30 mL served as an un-induced control. To the remaining culture bacitracin was added to a final concentration of 100 μg/mL and 30 mL samples were taken 5 and 15 min after addition. The cells were harvested by centrifugation at room temperature and cell pellets were shock frozen and stored at −70° C. for at least 30 min. […] After extraction the RNA was purified using the RNA clean-up protocol of the RNeasy kit (Qiagen) with on-column DNase treatment in order to remove abundant small RNA molecules (tRNAs and 5S rRNA) and residual genomic DNA.
Each slide contains 9220 features corresponding to duplicate copies of each open reading frame, additional PCR products for some ORFs, rRNA genes, and other controls. RNA preparations were used to synthesize Cy3- and Cy5-labeled cDNA and hybridization was performed as described (Ye et al., 2000, J Bacteriol. 182: 4458-4465; Ye et al., 2001, J Microbiol Methods. 47: 257-272, the entire teaching of which are incorporated herein by reference). All comparisons were performed twice (once each with Cy3 and Cy5) to control for possible differences in labeling efficiency between fluorophores. Fluorescent signal intensity data was quantified using ArrayVision software (Molecular Dynamics) and normalized to the total detectable mRNA. Mean fluorescence intensity is set to 1.0 with a value of 0.1 corresponding to background. Each expression ratio is represented by at least four separate measurements (duplicate spots on each of two slides).

Question: `CC[C@H](C)[C@H](N)C1=N[C@H](C(=O)N[C@@H](CC(C)C)C(=O)N[C@H](CCC(=O)O)C(=O)N[C@H](C(=O)N[C@H]2CCCCNC(=O)[C@H](CC(N)=O)NC(=O)[C@@H](CC(=O)O)NC(=O)[C@H](Cc3cnc[nH]3)NC(=O)[C@@H](Cc3ccccc3)NC(=O)[C@H]([C@@H](C)CC)NC(=O)[C@@H](CCCN)NC2=O)[C@@H](C)CC)CS1` [Bacitracin] ({Ileψ(thiazoline)Cys}-L[dE]IK[dOrn]I[dF]H[dD]N; lactam 4-C) was tested. Which fold induction at 100 µg/mL (5 min, read-out: Fold induction 5 min, gene bcrC, 100 μg/mL, 5 min) did it give?
Answer: ~10

Question: What about the fold induction at 100 µg/mL (5 min, read-out: Fold induction 5 min, gene cadA (yvgW), 100 μg/mL, 5 min) of the same compound?
Answer: 58

Question: And the fold induction at 100 µg/mL (5 min, read-out: Fold induction 5 min, gene cotY, 100 μg/mL, 5 min)?
Answer: 9.4

Question: And the fold induction at 100 µg/mL (5 min, read-out: Fold induction 5 min, gene czcD, 100 μg/mL, 5 min)?
Answer: 61

Question: What about the fold induction at 100 µg/mL (5 min, read-out: Fold induction 5 min, gene czcO (trkA), 100 μg/mL, 5 min) of the same compound?
Answer: 33

Question: What about the fold induction at 100 µg/mL (5 min, read-out: Fold induction 5 min, gene ydhK, 100 μg/mL, 5 min) of the same compound?
Answer: 12

Question: And the fold induction at 100 µg/mL (5 min, read-out: Fold induction 5 min, gene yetG, 100 μg/mL, 5 min)?
Answer: 1.4

Question: What about the fold induction at 100 µg/mL (5 min, read-out: Fold induction 5 min, gene ykvS, 100 μg/mL, 5 min) of the same compound?
Answer: 5.9

Question: What about the fold induction at 100 µg/mL (5 min, read-out: Fold induction 5 min, gene ytzB, 100 μg/mL, 5 min) of the same compound?
Answer: 2.8

Question: And the fold induction at 100 µg/mL (5 min, read-out: Fold induction 5 min, gene yybR, 100 μg/mL, 5 min)?
Answer: 5.4

Question: What about the fold induction at 100 µg/mL (5 min, read-out: Fold induction 5 min, gene(s) bacAB (ytsCD), 100 μg/mL, 5 min) of the same compound?
Answer: 280

Question: What about the fold induction at 100 µg/mL (5 min, read-out: Fold induction 5 min, gene(s) gerAA/AB, 100 μg/mL, 5 min) of the same compound?
Answer: 7.1

Question: What about the fold induction at 100 µg/mL (5 min, read-out: Fold induction 5 min, gene(s) ycgRQ, 100 μg/mL, 5 min) of the same compound?
Answer: 6.7

Question: What about the fold induction at 100 µg/mL (5 min, read-out: Fold induction 5 min, gene(s) ygaCD, 100 μg/mL, 5 min) of the same compound?
Answer: 2

Question: What about the fold induction at 100 µg/mL (5 min, read-out: Fold induction 5 min, gene(s) yhcYZ-yhdA, 100 μg/mL, 5 min) of the same compound?
Answer: 20

Question: What about the fold induction at 100 µg/mL (5 min, read-out: Fold induction 5 min, gene(s) yjbIH, 100 μg/mL, 5 min) of the same compound?
Answer: 5.2

Question: What about the fold induction at 100 µg/mL (5 min, read-out: Fold induction 5 min, gene(s) ykuNOP, 100 μg/mL, 5 min) of the same compound?
Answer: 1.4

Question: What about the fold induction at 100 µg/mL (5 min, read-out: Fold induction 5 min, gene(s) ytrBCDEF, 100 μg/mL, 5 min) of the same compound?
Answer: 9.1

Question: What about the fold induction at 100 µg/mL (5 min, read-out: Fold induction 5 min, gene(s) yvcRS, 100 μg/mL, 5 min) of the same compound?
Answer: 12

Question: And the fold induction at 100 µg/mL (5 min, read-out: Fold induction 5 min, gene(s) yvqGFEC, 100 μg/mL, 5 min)?
Answer: 6

Question: And the fold induction at 100 µg/mL (5 min, read-out: Fold induction 5 min, gene(s) yvqIH, 100 μg/mL, 5 min)?
Answer: 772

Question: And the fold induction at 100 µg/mL (0.25 h, read-out: Fold induction 15 min, gene bcrC, 100 μg/mL, 15 min)?
Answer: ~10

Question: And the fold induction at 100 µg/mL (0.25 h, read-out: Fold induction 15 min, gene cadA (yvgW), 100 μg/mL, 15 min)?
Answer: 9.8

Question: What about the fold induction at 100 µg/mL (0.25 h, read-out: Fold induction 15 min, gene cotY, 100 μg/mL, 15 min) of the same compound?
Answer: 5.9

Question: What about the fold induction at 100 µg/mL (0.25 h, read-out: Fold induction 15 min, gene czcD, 100 μg/mL, 15 min) of the same compound?
Answer: 3.8

Question: What about the fold induction at 100 µg/mL (0.25 h, read-out: Fold induction 15 min, gene czcO (trkA), 100 μg/mL, 15 min) of the same compound?
Answer: 2.8

Question: And the fold induction at 100 µg/mL (0.25 h, read-out: Fold induction 15 min, gene ydhK, 100 μg/mL, 15 min)?
Answer: 4.4

Question: And the fold induction at 100 µg/mL (0.25 h, read-out: Fold induction 15 min, gene yetG, 100 μg/mL, 15 min)?
Answer: 10

Question: And the fold induction at 100 µg/mL (0.25 h, read-out: Fold induction 15 min, gene ykvS, 100 μg/mL, 15 min)?
Answer: 10

Question: What about the fold induction at 100 µg/mL (0.25 h, read-out: Fold induction 15 min, gene ytzB, 100 μg/mL, 15 min) of the same compound?
Answer: 11

Question: What about the fold induction at 100 µg/mL (0.25 h, read-out: Fold induction 15 min, gene yybR, 100 μg/mL, 15 min) of the same compound?
Answer: 3.7

Question: And the fold induction at 100 µg/mL (0.25 h, read-out: Fold induction 15 min, gene(s) bacAB (ytsCD), 100 μg/mL, 15 min)?
Answer: 360

Question: And the fold induction at 100 µg/mL (0.25 h, read-out: Fold induction 15 min, gene(s) gerAA/AB, 100 μg/mL, 15 min)?
Answer: 4.2

Question: What about the fold induction at 100 µg/mL (0.25 h, read-out: Fold induction 15 min, gene(s) ycgRQ, 100 μg/mL, 15 min) of the same compound?
Answer: 7.9

Question: And the fold induction at 100 µg/mL (0.25 h, read-out: Fold induction 15 min, gene(s) ygaCD, 100 μg/mL, 15 min)?
Answer: 12

Question: What about the fold induction at 100 µg/mL (0.25 h, read-out: Fold induction 15 min, gene(s) yhcYZ-yhdA, 100 μg/mL, 15 min) of the same compound?
Answer: 14

Question: What about the fold induction at 100 µg/mL (0.25 h, read-out: Fold induction 15 min, gene(s) yjbIH, 100 μg/mL, 15 min) of the same compound?
Answer: 7.1

Question: What about the fold induction at 100 µg/mL (0.25 h, read-out: Fold induction 15 min, gene(s) ykuNOP, 100 μg/mL, 15 min) of the same compound?
Answer: 12

Question: And the fold induction at 100 µg/mL (0.25 h, read-out: Fold induction 15 min, gene(s) ytrBCDEF, 100 μg/mL, 15 min)?
Answer: 9.7

Question: And the fold induction at 100 µg/mL (0.25 h, read-out: Fold induction 15 min, gene(s) yvcRS, 100 μg/mL, 15 min)?
Answer: 24

Question: What about the fold induction at 100 µg/mL (0.25 h, read-out: Fold induction 15 min, gene(s) yvqGFEC, 100 μg/mL, 15 min) of the same compound?
Answer: 7

Question: What about the fold induction at 100 µg/mL (0.25 h, read-out: Fold induction 15 min, gene(s) yvqIH, 100 μg/mL, 15 min) of the same compound?
Answer: 1060

Question: What about the “Fold induction 15 min” value (gene bcrC) of the same compound?
Answer: 9.5 fold

Question: What about the “Fold induction 5 min” value (gene(s) bacAB (ytsCD), 5 min) of the same compound?
Answer: 282 fold

Question: And the “Fold induction 15 min” value (gene(s) bacAB (ytsCD))?
Answer: 365 fold

Question: What about the “Fold induction 5 min” value (gene(s) yhcYZ-yhdA, 5 min) of the same compound?
Answer: 21 fold

Question: And the “Fold induction 15 min” value (gene(s) yvcRS)?
Answer: 25 fold

Question: And the “Fold induction 5 min” value (gene(s) yvqGFEC, 5 min)?
Answer: 6.1 fold
